In patent publication US20250367100A1, “GINSENOSIDE COMPOSITION, DAILY CHEMICAL AND USE” (INCIPIRIT TECH (GUANGZHOU) CO., LTD., priority 2023, published 2025):
Structures can show the parent of a compound that is named as a salt.

Tested on: human epidermal keratinocytes
Test: Proliferation of epidermal keratinocytes in a co-culture system of dermal papilla cells and epidermal keratinocytes
Format: cell-based
Conditions: 0.2 μg/ml, 2 μg/ml, 20 μg/ml, 200 μg/ml, FIG. 5
Procedure: Add 500 μl of human epidermal keratinocytes (30,000 cells/ml) to each well of a 24-well MULTIWELL plate, then add a 1.0 μm of cell culture insert, and culture for 1 day. The 1.0 μm of cell culture insert already contains 300 μl of dermal papilla cells (20,000 cells/ml). Subsequently, add 1 μl/well each of the ginseng extracts 1-7, the positive control minoxidil sulfate, and the blank control (DMSO), and continue culturing for 3 days. Remove the 1.0 μm of cell culture insert, add 50 μl/well of Cell Counting Kit-8 (Dojindo Molecular Technologies, Inc.), continue culturing for 2 hours, and determine cell number using a microplate reader (450 nm, Mix 0).

## Nc1cc(N2CCCCC2)nc(N)[n+]1OS(=O)(=O)[O-] [minoxidil sulfate]
  proliferation of keratinocytes in co-culture system: no effect in promoting the proliferation of keratinocyte
